Reference: paper PMC5653858, “A single extracellular amino acid in Free Fatty Acid Receptor 2 defines antagonist species selectivity and G protein selection bias” (Scientific Reports, 2017)
Changes are numbered by the printed parent chain.

Tests used:
[1] = molecular target: T1, Lys^65Arg hFFA2 (Homo sapiens, UniProt O15552, K65R); experiment: inositol monophosphate accumulation assay, Lys65Arg hFFA2; type: cell-based
T1 construct: NanoLuc Luciferase (N); eYFP; expressed in transfected cells; host or cells: Flp-In T-REx HEK293, doxycycline-induced
T1 sequence (O15552 1-330 K65R): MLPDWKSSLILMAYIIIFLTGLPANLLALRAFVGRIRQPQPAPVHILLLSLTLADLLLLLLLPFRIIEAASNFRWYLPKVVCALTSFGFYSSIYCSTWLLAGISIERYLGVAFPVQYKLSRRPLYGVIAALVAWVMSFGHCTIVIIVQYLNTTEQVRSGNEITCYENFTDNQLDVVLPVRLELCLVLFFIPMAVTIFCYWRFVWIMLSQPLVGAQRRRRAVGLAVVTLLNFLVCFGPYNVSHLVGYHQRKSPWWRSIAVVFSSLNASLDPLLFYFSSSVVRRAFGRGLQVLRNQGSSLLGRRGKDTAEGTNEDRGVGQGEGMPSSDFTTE
Experimental: (§1) All cAMP and inositol monophosphate experiments were performed using Flp-In T-REx HEK293 cells induced to express the receptor of interest. Experiments were carried out using respective homogenous time-resolved FRET-based detection kits (CisBio Bioassays; CisBio, Codolet, France) according to the manufacturer’s protocol. For the cAMP inhibition assay cells were plated at 2000 cells/well in low-volume 384-well plates. The ability of agonists to inhibit 1 μM forskolin-induced cAMP production was assessed following a co-incubation for 30 min with agonist compounds. For the inositol monophosphate accumulation assay cells were plated at 7500 cells/well in low-volume 384-well plates and incubated for 2 h at 37 °C with test compounds. To assess ability of antagonists to inhibit agonist responses, cells were pre-incubated with antagonist compounds for 30 min at 37 °C prior to addition of an EC80 concentration of agonist. Respective reactions were stopped according to the manufacturer’s instructions and the output was measured by with a PHERAstar FS plate reader (BMGLabtech, Aylesbury, UK).

[2] = molecular target: T2, Lys^65Glu hFFA2 (Homo sapiens, UniProt O15552, K65E); experiment: inositol monophosphate accumulation assay, Lys65Glu hFFA2; type: cell-based
T2 construct: NanoLuc Luciferase (N); eYFP; expressed in transfected cells; host or cells: Flp-In T-REx HEK293, doxycycline-induced
T2 sequence (O15552 1-330 K65E): T1 sequence (O15552 1-330 K65R) with R65E
Experimental: as §1

[3] = system: bovine FFA2; parameters: method as in Hudson et al., unpublished; settings: bovine FFA2 has Lys at residue 65; ref Hudson et al., unpublished; cited from earlier work
[4] = molecular target: T1, Lys^65Arg hFFA2; parameters: method as in PMID 26991104; settings: not compatible with current results; cited from earlier work
[5] = molecular target: T3, Lys^65Ala hFFA2 (Homo sapiens, UniProt O15552, K65A); experiment: inositol monophosphate accumulation assay, Lys65Ala hFFA2; type: cell-based; parameters: NanoLuc Luciferase (N); eYFP; expressed in transfected cells; host or cells: Flp-In T-REx HEK293, doxycycline-induced
T3 sequence (O15552 1-330 K65A): T1 sequence (O15552 1-330 K65R) with R65A
Experimental: as §1

[6] = molecular target: T4, Arg^65Lys mFFA2 (Mus musculus, UniProt Q8VCK6, R65K); experiment: inositol monophosphate accumulation assay, Arg65Lys mFFA2; type: cell-based; settings: concentration-dependent
T4 construct: eYFP; expressed in transfected cells
T4 sequence (Q8VCK6 1-330 R65K): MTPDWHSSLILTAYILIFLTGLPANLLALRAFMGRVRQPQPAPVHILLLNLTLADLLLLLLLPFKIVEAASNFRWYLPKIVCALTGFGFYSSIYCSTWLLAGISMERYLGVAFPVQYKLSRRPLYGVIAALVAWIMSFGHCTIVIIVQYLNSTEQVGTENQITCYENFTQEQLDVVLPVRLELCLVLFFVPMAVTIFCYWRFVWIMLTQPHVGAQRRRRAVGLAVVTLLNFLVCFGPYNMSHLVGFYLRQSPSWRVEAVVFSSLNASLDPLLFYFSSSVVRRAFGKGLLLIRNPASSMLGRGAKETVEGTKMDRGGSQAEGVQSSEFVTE
Experimental: as §1

[7] = molecular target: T5, hFFA2 (Homo sapiens, UniProt O15552); experiment: inositol monophosphate accumulation assay, wild type hFFA2; type: cell-based; parameters: expressed in transfected cells; settings: against an EC80 concentration of compound 1, wild type hFFA2; read-out: pIC50 to inhibit inositol monophosphate response, WT (converted)
T5 sequence (O15552 1-330): T1 sequence (O15552 1-330 K65R) with R65K
Experimental: as §1

[8] = molecular target: T6, mFFA2 (Mus musculus, UniProt Q8VCK6); experiment: inositol monophosphate accumulation assay, mFFA2; type: cell-based; settings: EC80 concentration of C3, wild type mFFA2
T6 construct: eYFP; expressed in transfected cells; host or cells: Flp-In T-REx HEK293, doxycycline-induced
T6 sequence (Q8VCK6 1-330): T4 sequence (Q8VCK6 1-330 R65K) with K65R
Experimental: as §1

[9] = molecular target: T3, Lys^65Ala hFFA2; experiment: bias factor β calculation, Lys65Ala hFFA2 compared to WT; type: cell-based; parameters: NanoLuc Luciferase (N); eYFP; expressed in transfected cells; host or cells: Flp-In T-REx HEK293, doxycycline-induced; settings: Pathway 2 TGFα shedding
Experimental: (§2) All data are presented as means ± SEM of at least three independent experiments. Data analysis and curve fitting was carried out using the GraphPad Prism software package version 5.0b (GraphPad, San Diego). […] In case of inhibition experiments with antagonists an equivalent analysis was followed to fit an inverse sigmoidal curve. To perform the statistical analysis of curve parameters, data from multiple experiments were fitted independently and resulting curve fit values were analysed with indicated tests. For radioligand binding data, saturation binding curves were generated by fitting the specific binding, which was obtained by subtracting non-specific from total binding, to a one site specific binding model that allows calculation of Kd values for the radioligand at wild type and mutant receptors. To determine affinity of unlabelled ligands, data obtained in displacement assays were fit to an inverse three parameter sigmoidal curve constrained by radioligand affinity and concentration to allow for Ki calculation. To quantify the signaling bias that mutations of hFFA2 show compared to the wild type receptor, bias factor β was calculated by determining the logarithm of the ratio of relative intrinsic activities for a ligand at two different assays[43].

[10] = molecular target: T3, Lys^65Ala hFFA2; experiment: HTRF cAMP inhibition assay, Lys65Ala hFFA2; type: cell-based; parameters: NanoLuc Luciferase (N); eYFP; expressed in transfected cells; host or cells: Flp-In T-REx HEK293, doxycycline-induced; settings: compared to wild type hFFA2
Experimental: as §1

[11] = system: Lys^65 to either Ala or Glu in hFFA2; experiment: degree of bias to favor Gi-mediated signalling, Lys65 to either Ala or Glu in hFFA2; type: cell-based, human; settings: vs TGFα shedding
Experimental: as §2

[12] = molecular target: T1, Lys^65Arg hFFA2; experiment: bias factor β calculation, Lys65Arg hFFA2 compared to WT; type: cell-based; settings: Pathway 2 TGFα shedding
Experimental: as §2

[13] = molecular target: T2, Lys^65Glu hFFA2; experiment: bias factor β calculation, Lys65Glu hFFA2 compared to WT; type: cell-based; settings: Pathway 2 TGFα shedding
Experimental: as §2

[14] = molecular target: T3, Lys^65Ala hFFA2; settings: compared with loss of potency in inositol monophosphate assays
Experimental: Membranes were generated from Flp-In T-REx HEK293 cells treated with 100 ng/mL doxycycline to induce expression of receptor of interest. Cells were washed with ice-cold phosphate-buffered saline, removed from dishes by scraping and centrifuged at 3000 rpm for 5 min at 4 °C. Pellets were resuspended in TE buffer (75 mM Tris-HCl, 5 mM EDTA; pH 7.5) containing a protease inhibitor mixture (Roche Applied Science, West Sussex, UK) and homogenized with a 5 ml hand-held homogenizer. This material was centrifuged at 1500 rpm for 5 min at 4 °C and the supernatant was further centrifuged at 50000 rpm for 30 min at 4 °C. The resulting pellet was resuspended in TE buffer and protein content was assessed using a BCA protein assay kit (Pierce, Fisher Scientific, Loughborough, UK).
Binding was initiated by the addition of membranes (5 µg of protein per tube). […] Radioactivity was quantified by liquid scintillation spectrometry.
All data are presented as means ± SEM of at least three independent experiments. […] To perform the statistical analysis of curve parameters, data from multiple experiments were fitted independently and resulting curve fit values were analysed with indicated tests. […]

[15] = molecular target: T5, hFFA2; experiment: TGFα shedding assay, wild type hFFA2; type: cell-based; parameters: HA-tag (C); expressed in transfected cells; host or cells: HEK293, parental and CRISPR/Cas9 G protein-deleted lines, transient transfection
Experimental: A mixture of 250 ng AP-TGFα, 100 ng receptor of interest and 50 ng Gα protein were transfected using polyethyleneimine into one well of HEK293 cells cultured in a 12-well plate. Transfected cells were detached with PBS containing 0.05% trypsin and 0.52 mM EDTA and harvested by centrifugation at 190 × g for 5 min. The cell pellet was resuspended in PBS, followed by an incubation for 15 min at room temperature. After a second centrifugation at 190 × g for 5 min, pelleted cells were resuspended in 4 ml Hank’s Balanced Salt Solution (HBSS) containing 5 mM HEPES (pH7.4) per well in a 12-well plate. The cell suspensions were plated at 90 μl per well in a 96-well plate and incubated at 37 °C with 5% CO2 for 30 minutes. After the equilibration period 10 μl per well of 10× concentration of compounds were added and incubated for 1 h at 37 °C with 5% CO2. Plates were centrifuged at 190 × g for 2 min and 80 μL of supernatant was transferred into another 96-well plate. Solution containing p-NPP (10 mM p-NPP, 40 mM Tris-HCl (pH 9.5), 40 mM NaCl, 10 mM MgCl2) was added at 80 μl per well into supernatant-only plates as well as cell plates. […] Detailed assay development and analysis has been described previously.

[16] = molecular target: T2, Lys^65Glu hFFA2; experiment: HTRF cAMP inhibition assay, Lys65Glu hFFA2; type: cell-based; settings: compared to wild type hFFA2
Experimental: as §1

[17] = system: human neutrophils; settings: cited from earlier work

O=C(O)C[C@H](Cc1ccc(C(F)(F)F)cc1)NC(=O)Cc1cccc(Cl)c1 [CATPB, (S)-3-(2-(3-chlorophenyl)acetamido)-4-(4-(trifluoromethyl)phenyl)butanoic acid]
ability to block compound 1-mediated elevation of inositol monophosphate accumulation at Lys65Arg hFFA2 ([1]; EC80 concentration of compound 1): all but abolished
IC50 ([1]; against an EC80 concentration of compound 1, K65R hFFA2, read-out: pIC50 to inhibit inositol monophosphate response, K65R (converted)): > 31.6 µM
IC50 ([2]; against an EC80 concentration of compound 1, K65E hFFA2, read-out: pIC50 to inhibit inositol monophosphate response, K65E (converted)): > 31.6 µM
binding to bovine FFA2 [3]: does not bind CAPTB with high affinity
antagonism of C3 at Lys65Arg hFFA2 [4]: effective and competitive antagonist
IC50 ([5]; against an EC80 concentration of compound 1, K65A hFFA2, read-out: pIC50 to inhibit inositol monophosphate response, K65A (converted)): 437 nM
antagonism of C3-mediated inositol monophosphate accumulation at Arg65Lys mFFA2 [6]: fully antagonize
IC50 [7]: 19.1 nM
effect on C3-stimulated inositol monophosphate production at mFFA2 [8]: unaffected

CCC(=O)O [Compound C3, propionate]
loss of agonist potency at Lys65Glu hFFA2 vs wild type, inositol monophosphate accumulation ([2]; Glu substitution): greater than 30 fold
β factor (compared to WT) K65A ([9]; Pathway 1 GTPγS): 1.78
β factor (compared to WT) K65A ([9]; Pathway 1 cAMP): 2.00
maximal effect in cAMP inhibition at Lys65Ala hFFA2 [10]: greater than at wild type hFFA2
bias to favor Gi-mediated signalling compared to wild type hFFA2, based on [35S]GTPγS binding studies [11]: 41–60 fold
bias to favor Gi-mediated signalling compared to wild type hFFA2, based on cAMP inhibition studies [11]: 100–125 fold
loss of agonist potency at Lys65Ala hFFA2 vs wild type, inositol monophosphate accumulation ([5]; Ala substitution): greater than 30 fold
β factor (compared to WT) K65R ([12]; Pathway 1 GTPγS): −0.10
β factor (compared to WT) K65R ([12]; Pathway 1 cAMP): −0.30
β factor (compared to WT) K65E ([13]; Pathway 1 GTPγS): 1.62
β factor (compared to WT) K65E ([13]; Pathway 1 cAMP): 2.10
ability to compete for binding with [3H]GLPG0974 at Lys65Ala hFFA2 [14]: much less affected
potency in TGFα shedding assay (parental HEK293) higher than in inositol monophosphate accumulation assay ([15]; wild type hFFA2): ~10 fold
TGFα shedding response in HEK293 cells lacking Gαq, Gα11, Gα12, Gα13 ([15]; wild type hFFA2, all four G protein α subunits eliminated): no TGFα shedding response
maximal effect in cAMP inhibition at Lys65Glu hFFA2 [16]: greater than at wild type hFFA2

CC1(C(=O)N(CCCC(=O)O)Cc2cccc(Cl)c2)CCN1C(=O)c1csc2ccccc12 (stereo not shown) [GLPG0974, 4-[[1-(benzo[b]thiophene-3-carbonyl)-2-methylazetidine-2-carbonyl]-(3-chlorobenzyl)amino]butyric acid]
block of chemotaxis of human neutrophils [17]: effectively blocked chemotaxis of human neutrophils
